# In paper PMC4245888 (Frontiers in Pharmacology, 2014):
# Key:
# [1] = tested on: cholesterol and triglyceride levels; settings: cited from earlier work
# [2] = cited from earlier work
# [3] = Pharmacokinetics of total EZE in plasma, single-dose three-period crossover study, EZE alone vs ATO–EZE combination; format: in vivo, human; settings: EZE 10 mg coadministered with ATO 80 mg; bioequivalence-based hypothesis
# Description: Thirty six healthy Mexicans volunteers of both gender who were between the ages of 18 and 45 (mean ± SEM: 24.71 ± 0.03 years), had heights between 140.0 and 190.0 cm (163.0 ± 0.005 cm), and weighed between 43.50 and 79.50 kg (62.15 ± 1.9 kg) were enrolled in the study. The study protocol was approved by an independent ethics committee as well as by the regulatory authority in Mexico (COFEPRIS), and it was conducted following the ethical principles described in the Declaration of Helsinki. […]
# For the determination of both molecules were developed an analytical method, where only once plasma processing is used to obtain both molecules, but the quantification of the analytes was performed on two separate injections ATO in positive electrospray ionization ESI (+) mode and EZE in negative electrospray ionization ESI (-) mode. […]
# Chromatographic analysis was performed on UPLC-MS/MS system consisting of Acquity UPLC coupled to a tandem mass spectrometry detector XEVO-TQS (Waters, USA) and Acquity UPLC BEH C18 (1.7 μm, 2.1 × 100 mm) column (Waters, USA). […] MRM data were acquired and analyzed through MassLynx software (Waters, USA). […]
# [4] = cited from earlier work; for terminal elimination half-life: the drug and its metabolite, ref Ezzet et al., 2001
# [5] = tested on: major drug metabolizing enzymes (CYP450); parameters: method as in van Heek and Davis, 2002; settings: ref van Heek and Davis, 2002; cited from earlier work
# [6] = hyperlipidemic patients, dose dependent, ref Nawrocki et al., 1995, Heinonen et al., 1996
# [7] = dose of 10 mg, ref Kosoglou et al. (2002)
# [8] = oral administration, ref van Heek et al., 2000, Patrick et al., 2002, Malloy and Kane, 2007, Mahley and Bersot, 2008
SMILES,"reduction of colesterol and triglycerides, significantly larger than equivalent doses of other statin drugs ([1]; P ≤ 0.01, ref Jones et al., 1998)","lowering of cholesterol levels [1, 6]","lowering of triglyceride levels [1, 6]",intra-subject variability ([2]; ref European Medicines Agency [EMEA] (2010)),"share of circulating inhibitory activity for HMG-CoA reductase attributed to active metabolites (ortho- and parahydroxy ATO) ([2]; ref Pfizer Inc. Lipitor®, 2009)",pharmacokinetic drug–drug interaction (on EZE) [3],"Cmax of EZE [4, 7]","area under the curve to the end point of EZE [4, 7]",fraction biotransformed into glucuronide active metabolite ([4]; ref Kosoglou et al. (2002)),terminal elimination half-life [4],effect on the activity of major drug metabolizing enzymes (CYP450) [5],"time of first peak blood level (dual peak, enterohepatic recirculation) [4, 8]","time of second peak blood level (dual peak, enterohepatic recirculation) [4, 8]"
"CC(C)c1c(C(=O)Nc2ccccc2)c(-c2ccccc2)c(-c2ccc(F)cc2)n1CC[C@@H](O)C[C@@H](O)CC(=O)O [ATO, Atorvastatin]",38–51%,25–61%,9–61%,> 30%,Approximately 70%,,,,,,,,
"O=C1[C@H](CC[C@H](O)c2ccc(F)cc2)[C@@H](c2ccc(O)cc2)N1c1ccc(F)cc1 [EZE, Ezetimibe]",,,,,,no relevant pharmacokinetic drug–drug interaction,64.2 to 73.6 ng/mL,440 to 722 ng·h/mL,> 80%,20 to 30 h,no effect,,
O=C(O)[C@H]1O[C@@H](Oc2ccc([C@@H]3[C@@H](CC[C@H](O)c4ccc(F)cc4)C(=O)N3c3ccc(F)cc3)cc2)[C@H](O)[C@@H](O)[C@@H]1O [EZE-G],,,,,,,,,,20 to 30 h,,4 to 6 h,10 to 12 h
